# Test results taken from a melting point compilation (Tetko et al.; mined from patent text by program, amines drawn as free bases though some values may be those of a salt).
row,melting point,Structure (SMILES)
1,250 to 252 °C,CC(C)(C)[Si](C)(C)Oc1ccc(C(=O)O)cc1C12CC3CC(CC(C3)C1)C2
2,> 55 °C,OC1(CNCc2ccccn2)CCN(CCCc2c[nH]c3ccc(-n4cnnc4)cc23)CC1
3,147 to 149 °C,CCOc1nc(C)c2cc(OC)c(OC)cc2c1C(=O)OC
4,304 to 307 °C,CCn1cc(C(=O)O)c(=O)c2ccc(N)cc21
5,215 to 216 °C,CC(=O)N(C)C1CCc2c([nH]c3ccccc23)C1 (configuration not stated)
6,129 to 130 °C,COC(=O)c1ccc(OCCN2C(=O)c3ccccc3C2=O)cc1
7,86 to 87 °C,CCN1CCN(c2nccc(Oc3ccc(NC(=O)c4cc(F)cc(N5CCCCC5)c4)c4ccccc34)n2)CC1
8,133 to 135 °C,Cc1nc2cc(Cl)ccc2c(=O)n1CCc1ccccc1
9,150 to 152 °C,Cc1ccc(NC(=O)c2cc(Cl)ccc2NCC2CCN(C3CCCC3)CC2)nc1
10,113 to 116 °C,CCN(CC)C(=O)n1cnc(S(=O)(=O)CC2CCC2)n1
11,> 300 °C,O=c1[nH]c(=Cc2ccc(OCc3ccccc3)cn2)c(=O)[nH]c1=Cc1ccc([N+](=O)[O-])cc1
12,235 °C,O=C(c1ccc(Cl)cc1)N1CCc2cc(S(=O)(=O)N3CC(c4ccccc4)NC3=O)ccc21 (configuration not stated)
13,188 to 189 °C,CN(C)Nc1nc(Cl)nc2c1ncn2C1OC(CCl)C(O)C1O (configuration not stated)
14,165 to 167 °C,Cc1ccc(C2CCN(c3c(C)c(C)c4c(c3C)[C@@H](c3ccc(C)cc3)C(C)(C)O4)CC2)cc1
15,74.5 to 81 °C,Cc1ccc(S(=O)(=O)OC[C@@H]2CCCN(C)C2)cc1
16,101 to 106 °C,CC1(C)C(C#N)C1C(=O)O (configuration not stated)
17,207 °C,COc1ccc(N(Cc2ccc(C#N)cc2)n2ccnc2)cc1
18,165 to 166 °C,COc1ccc(S(N)(=O)=O)cc1C(C)O (configuration not stated)
19,123 to 124 °C,COc1cc(OC)cc(C(=O)N[C@H]2CCN(C)C[C@H]2c2ccccc2)c1 (relative stereo)
20,129 to 130 °C,CC(C)C(=O)c1c(-c2ccc(F)cc2)nn2cc(C(F)(F)F)ccc12
21,187 °C,Cn1c([N+](=O)[O-])cnc1CS(=O)(=O)c1ccccn1
22,189 to 190 °C,COCCNC(=O)Cc1c(-c2ccc(C)cc2)nc2[nH]c3ccccc3n12
23,82 to 83 °C,N#CCC(=O)NCc1ccccn1
24,145 to 146 °C,CNC(=O)NN(CC(=O)OC)c1cccc(OC)c1

row,melting point,Structure (SMILES)
1,116 to 118 °C,COc1ccc(NCCSC#N)c([N+](=O)[O-])c1
2,189 to 193 °C,CCCCc1nc2c(N)nc3ccc(OCCC4CCN(C(=O)C(C)C)CC4)cc3c2n1C
3,125 to 128 °C,C[C@@H](Nc1nc(Nc2cccc(NS(C)(=O)=O)c2)nc2[nH]ccc12)C(C)(C)C
4,62 to 63 °C,CC(C)CCc1ccc(C(=S)CC#N)cc1
5,186 to 187 °C,Cc1ccc(CS(=O)c2nc3cc4c(cc3[nH]2)OC(F)C(F)(F)O4)nc1 (configuration not stated)
6,78 to 80 °C,CCCCCCC(=N)NC(=S)Nc1ccc(C)cc1Cl
7,105 to 106 °C,CCOc1cc(OCCCCc2cc(-c3ccc(C(F)(F)F)cc3)no2)ccc1CCC(=O)O
8,132 to 133 °C,CC(C)Sc1nc(-c2ccc(Cl)cc2)c(CCC(=O)O)o1
9,160 to 162 °C,O=C(O)c1cnn(CC(F)(F)F)c1
10,215 to 217 °C,COc1cc2ncnc(N3CCN(C(=O)Nc4ccc(N)cc4)CC3)c2cc1OC
11,106 to 108 °C,C[C@@H]1CCC[C@H](C)N1CCN1CCN(CCCN2CCCCC2)C1=C(C#N)C#N
12,249 to 251 °C,CC1(C)CC(=O)Nc2cc(C(=O)Nc3ccccc3)ccc21
13,252 to 256 °C,O=c1cc(Nc2cccc(-c3ccncc3)c2)c1=O
14,262 to 265 °C,O=S(=O)(Nc1nc2ccccc2nc1Nc1cccc2ccccc12)c1ccc(Cl)cc1
15,62 to 69 °C,O=C(CCCC1CCCCCCCCCCC1)C1=C(O)CSC1=O
16,200 to 202 °C,COC(=O)CN(CC(=O)OC)c1cc(O)cc(O)c1
17,125 to 126 °C,CCNc1nc(Cc2ccc(OC)c(OC)c2)nc2sc(C#N)c(C)c12
18,61.5 to 63.5 °C,ClCc1ccc(C#Cc2ccccc2)cc1
19,66 °C,CC(C)NCC(O)COc1ccc(CCOC2CCCC2)cc1 (configuration not stated)
20,108 °C,CC(=O)NCCOC(=O)C(Oc1ccc(F)c(C(F)(F)F)c1)c1ccc(Cl)cc1 (configuration not stated)
21,195 to 197 °C,COn1c(Br)c(C#N)c(Br)c1-c1ccc(Cl)cc1
22,104 to 109 °C,COc1ccc([N+](=O)[O-])c(/C=C/c2cc(/C=C/c3ccc4cc[nH]c4c3)n[nH]2)c1
23,179 to 181 °C,Cc1c(C(N)=O)ncn1-c1cccc(Cl)c1
24,71 to 73 °C,CCCCCCCCCc1ccc(CCCC(N)(CO)CCO)cc1 (configuration not stated)

row,melting point,Structure (SMILES)
1,64 to 68 °C,OC(CNCCCOCCCCCCc1ccccc1)c1ccc2c(n1)COC(c1ccccc1)O2 (configuration not stated)
2,110 to 113 °C,O=C(CN1CCC(CN2C(=O)c3ccccc3C2=O)CC1)c1ccc(F)cc1
3,196 to 198 °C,CC(Oc1ncn(-c2ccc(Cl)cc2)n1)C(=O)O (configuration not stated)
4,99.9 to 105 °C,CCCCCN(CCC12CC3CC(CC(C3)C1)C2)C(=O)NCCCc1cccnc1
5,144 to 145 °C,O=C(O)C1CCc2onc(-c3ccc(Cl)cc3)c2CC1 (configuration not stated)
6,212 to 214 °C,CC1(C)Oc2cc(C#N)sc2[C@@H](N2CCCCC2=O)[C@@H]1O (relative stereo)
7,129 to 131 °C,CNS(=O)(=O)Oc1ccc2c(c1)C(C)(C)C(N1CCOCC1)O2 (configuration not stated)
8,227 to 228 °C,COc1cc2cc(Cl)nc(N3CCN(C(=O)Nc4ccc([N+](=O)[O-])cc4)CC3)c2cc1OC
9,70 to 71 °C,O=C(CCCCCl)NC1CCCCC1
10,209 to 210 °C,O=S(=O)(Nc1cccc2cc(-c3ncc(CO)s3)[nH]c12)c1cccs1
11,135 to 137 °C,CCCCCCCCCCCCc1nnn(C(C(=O)Nc2c(OC)cc(OC)cc2OC)C(C)C)n1 (configuration not stated)
12,100 to 101 °C,CCCc1c(OCCCCCCc2cccc(OCCCCCC(=O)O)c2CCC(=O)O)ccc2c1CCCC2=O
13,91 to 92 °C,O=C1Cc2cc(Cl)ccc2Oc2ccc(F)cc21
14,267 to 269 °C,Cc1nnc2ccc(-c3ccc(Cl)c(C(F)(F)F)c3)nn12
15,186 °C,NC(=O)c1ccc(Br)c(OC(F)F)c1Br
16,249 to 254 °C,Cc1cc2c(c3c1sc1ccc(O)cc13)C(=O)N(CCN(C)C)C2=O
17,117 °C,COC(=O)CCCc1cc2nc(Cl)ccc2n1S(=O)(=O)c1ccc2nc(C)sc2c1
18,148 to 150 °C,CCOC(=O)C1=C(C)Nc2ccccc2NC1c1cccc([N+](=O)[O-])c1 (configuration not stated)
19,173 to 175 °C,Nc1nnc(OCc2ccccc2)s1
20,48 °C,CCCCc1ccc(OC)c(-c2csc(N)n2)c1
21,82 to 83 °C,COCCOCCOc1ccc(C2=N[C@@](C)(C(=O)O)CS2)c(O)c1
22,206 to 210 °C,Cc1c(N2CC[C@@H](O)[C@H](C)C2)c(F)cc2c(=O)c(C(=O)O)cn(C3CC3)c12 (relative stereo)
23,117 to 119 °C,Clc1cccnc1-c1cc(OCCc2ccccn2)c2[nH]nc(Nc3cnccn3)c2c1
24,135 to 136 °C,CCOC(=O)C(=O)C(C#N)c1ccc(Cl)cc1 (configuration not stated)

row,melting point,Structure (SMILES)
1,109 to 110 °C,COc1ccc(C(=O)c2ccc(OCc3nc(-c4ccccc4)oc3C)cc2C)c(O)c1
2,233 to 235 °C,CC1=C(C(=O)OCCOc2ccccc2)C(c2cccc(Cl)c2C)C2=C(CNCC2=O)N1 (configuration not stated)
3,169 to 171 °C,O=C(c1ccccc1SSc1ccccc1C(=O)N1CCC(CO)C1)N1CCC(CO)C1 (configuration not stated)
4,215 to 220 °C,O=C(NC(=O)c1c(F)cccc1F)Nc1ccc(C(F)(F)F)cn1
5,266 to 268 °C,O=c1[nH]c2sccc2c2ccccc12
6,232 to 234 °C,O=C(c1ccc2scnc(=O)c2c1)N1CCCC1
7,154 to 156 °C,O=c1c(Cl)c(S(=O)(=O)Cc2ccccc2)cnn1-c1ccccc1
8,180 to 182 °C,Cn1nc(Nc2cc(-c3ccc4c(c3)NC(=O)C4)cn3ccnc23)cc1C(C)(C)O
9,> 240 °C,CCc1cc(-n2c(=O)[nH]c3cc(C(F)(F)F)c(Oc4ccccc4)cc32)c(OC)cc1OC
10,165 to 167 °C,CCCCOCCOc1ccc(-c2ccc3c(c2)C=C(C(=O)Nc2ccc(CCCn4cnnc4)cc2)CCN3CC(C)C)cc1
11,276 to 279 °C,CCOC(=O)c1cc(Cl)c2[nH]ncc2n1
12,197 to 207 °C,COC(=O)C1=C(C)NC(CC(=O)N2CCN(C3CCC4CCC3C4)CC2)=C(C(=O)OC)C1c1c(Cl)cccc1Cl (configuration not stated)
13,126 to 129 °C,CCCCCS(=O)(=O)NC(=O)CCc1cc(OC(C)C)nn1Cc1ccc(Cl)cc1Cl
14,120 to 121 °C,O=S(=O)(Cc1ccccc1)C1CCN(Cc2ccccc2)CC1
15,45 to 48 °C,OCCCc1ccccc1OCc1ccccc1
16,68 to 69 °C,c1ccc(COc2ccc(CCCCn3cncn3)cc2)cc1
17,63 to 66 °C,COc1nc2c(s1)C(=O)N(C(C)(C)C)C2=O
18,> 300 °C,CNC(=S)n1nc(NC(C)=O)nc1N
19,126 to 130 °C,CC(=O)c1ccc(C2=C(c3ccc(S(C)(=O)=O)cc3)OC3(CCCC3)C2=O)cc1
20,97.4 °C,COc1ccc2c(c1)C(C(=O)O)CCO2 (configuration not stated)
21,135 to 137 °C,COc1ccc(COC(=O)C2N(c3c(C)cccc3C)C(=N)C(C)N2c2c(C)cccc2C)cc1 (configuration not stated)

row,Structure (SMILES),melting point
1,CC(C)(CNC(=O)CN1CCCC1=O)N1CCCCC1,69 °C
2,CC1(O)CCC2C3CCC45OC4(C)C(=O)C(C#N)CC5(C)C3CCC21C (configuration not stated),166 to 167 °C
3,COc1cc(N)c(Cl)cc1C(=O)N[C@H]1CCN(CCCC(=O)N2CCC(=O)CC2)C[C@H]1OC (relative stereo),157 °C
4,O=C(O)c1ncn2c1[C@@H]1CCN1C(=O)c1c(Cl)cccc1-2,244 to 245 °C
5,CSc1c(Cl)nc(N2CCNCC2)nc1NC(C)C,147 °C
6,CC1=C2C3C(C)CC4=CC(=O)CCC4C3CCC2(C)C(O)C1 (configuration not stated),164 to 167 °C
7,Cc1nc(C(N)=O)c2n1-c1ccc([N+](=O)[O-])cc1C(c1ccccc1Cl)=NC2,> 300 °C
8,CN1CC2Cc3ccc(Cl)cc3C(C)(O)C2C1 (configuration not stated),125 to 130 °C
9,Cc1cc2ccc3c(c2o1)OC(CN1CC=C(c2c[nH]c4ccccc24)CC1)CO3 (configuration not stated),198 to 200 °C
